In patent publication US20040053872A1, “New sequences” (priority 2000, published 2004):

Columns and labels:
[1] = test system: panel of recombinant HIV 1 subtype B RTs; assay: RT binding inhibition (BIC) assay, whole RT panel; details: all conditions studied
Method: (iii) Protocol for RT binding inhibition (BIC) assay: The study was performed in a modified DNA polymerase assay. The inhibitors were serially diluted in five steps, enzyme dilution was added and the enzyme/inhibitor mixtures were incubated for 30 minutes at 33° C. Aliquots of the enzyme/inhibitor mixture were transferred to each well of a microtiter plate containing either immobilised primer, or primer/template. The enzyme was allowed to bind to the immobilised polymer for 90 min at 33° C. The amount of RT used was standardised to an activity corresponding to 40-60 pg (3.3-5.0×10^−16 mol) reference HIV-1 RT per well. The plates were then washed to remove unbound enzyme whereupon the amount of bound enzyme was determined by addition of the appropriate reaction solution for polymerisation (i e a reaction solution devoid of primer for studies of primer binding and a reaction solution devoid of both primer and template for studies of binding to primed template). The polymerase reaction was allowed to proceed for 3 hours at 33° C., whereupon the reaction was terminated by a wash of the plate.
The capacity of the indicated substances to inhibit the binding to primer or to primed DNA template of a panel of recombinant HIV 1 subtype B RTs was studied according to “Protocol for RT binding inhibition (BIC) assay” (protocol (iii) above).

[2] = test system: Mut1 (RNase H inactive mutant of HIV-1 RT); assay: Test of binding by gel filtration on a SMART system; details: starting amounts Mut1 210 pmol, oligonucleotide 630 pmol; Mut1 only 0.50 / 0.63
Source text: (§1) In the following experiment, the terms “34-mer” and “35-mer” refer to SEQ ID NO:3 (produced in example A1 above) and SEQ ID NO:4 (produced in example A2 above), respectively. […] Natural RT molecules have an RNase H activity which normally cleaves RNA molecules. […] This mutant is produced according to the method given in Schatz, O., Cromme, F. V., Grüninger-Leitch, F. and Le Grice, S. F. J., Febs Letter. Vol.257, No.2 p.311-314. This RT-mutant is further on referred to as Mut1. The following experiments are carried out:
1. Test of binding by means of separation of the complex Mut1−34-mer (from Example A1) from excess 34-mer using gel filtration on a SMART system.
1. Mut1 is incubated with excess 34-mer for about 90 min at 4° C., buffer Tris-HCl, pH=8.0, containing 5 mM MgCl2. The mixture is then applied to a gel filtration column of a SMART™-type system, which allows simultaneous registration at two different wavelengths.
Starting amounts: Mut=210 pmol; 34-mer=630 pmol. The left peak is the complex Mut1−34-mer. The absorption at 260 nm (the upper curve) is now higher than the absorption at 280 nm (the lower curve): A260/A280=1.13. The right peak is the excess 34-mer, which has the characteristic absorption ratio for nucleic acids: A260/A280=2.01. […]

[3] = test system: Mut1 (RNase H inactive mutant of HIV-1 RT); assay: Gel mobility shifts in native polyacrylamide gel electrophoresis (PAGE); type: binding
Source text: as §1
2. Gel mobility shifts in polyacrylamide gel electrophoresis (PAGE) experiments.
a) Native 20% PAGE gel is run at 4-5° C. Samples are incubated at 4° C. in 50 mM hepes buffer and 5 mM magnesium chloride and varying salt concentrations as indicated below.
Samples are incubated for 90 min at 4° C. prior to a further 10 min incubation at 4° C. with ammonium sulphate and/or KCl. Samples applied to lanes 4 and 5 have twice the amount of 34-mer used for the other samples.
b) Native 20% PAGE gel run at 4-5° C. Samples are incubated at 4° C. in 50 mM hepes buffer and 5 mM magnesium chloride, with varying concentrations of ammonium sulphate.
Native 20% PAGE gel is run at 4-5° C. Samples are incubated at 4° C. in 50 mM hepes buffer, 15 mM manganese sulphate, 1 mM EDTA and 0.25 mM EGTA.
Samples are incubated 10 min at room temperature prior to a 60 min incubation at 4° C. One μl of sample solution is applied per lane. Electrophoresis is conducted with up to 400 volts while cooling to approximately 4° C. After 0.209 kWh the gel is silver stained.

Compound | Capacity to prevent RT binding to primer or primed template [1] | A260/A280 of the complex peak Mut1-oligonucleotide [2] | Gel mobility of Mut1 in complex with oligonucleotide ([3]; native 20% PAGE at 4-5° C.) | Complex with Mut1 at high salt concentrations ([3]; native 20% PAGE, ammonium sulphate up to […])
Cc1ccnc2c1NC(=O)c1cccnc1N2C1CC1 [Nevirapine] | unable to prevent RT binding | – | – | –
34-mer: phosphorothioate RNA 34-mer corresponding to bases 10-43 in tRNALys3 with unmodified A, G, C and U nucleotides (example A1) | – | 1.13 | migrates faster than Mut1 alone | remains in complex with Mut1
